The values below come from US12152019B2, “Arylalkyl pyrazole compounds as indoleamine 2,3-dioxygenase inhibitors” (Merck Sharp & Dohme LLC, priority 2018, dated 2024).

Chain of IDO1 (P14902 whole entry): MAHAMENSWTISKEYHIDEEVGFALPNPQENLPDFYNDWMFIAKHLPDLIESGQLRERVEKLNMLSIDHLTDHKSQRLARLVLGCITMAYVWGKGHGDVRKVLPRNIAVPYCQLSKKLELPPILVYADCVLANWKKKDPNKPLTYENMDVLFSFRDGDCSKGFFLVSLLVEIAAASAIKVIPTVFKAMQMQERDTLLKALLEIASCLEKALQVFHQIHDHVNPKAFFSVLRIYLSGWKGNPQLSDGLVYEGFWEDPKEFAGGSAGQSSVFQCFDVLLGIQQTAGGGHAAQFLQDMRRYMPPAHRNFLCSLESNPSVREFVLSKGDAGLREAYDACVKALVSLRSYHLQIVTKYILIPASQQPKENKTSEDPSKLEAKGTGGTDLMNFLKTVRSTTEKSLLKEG

The target in this assay is IDO1 (Homo sapiens, UniProt P14902). In words: IDO1 Human Whole Blood Assay. It is filed as cell-based. Conditions: LPS and IFNγ 100 ng/mL, overnight (18 h), kynurenine by LC/MS/MS, read-out: Human Whole Blood Potency, IC50. The method, then:
IDO1 Human Whole Blood Assay Compounds to be tested were serially diluted in ten 3-fold steps in DMSO starting from 10 mM. 3 μL of compound dilutions or DMSO alone were then dispensed from the dilution plate into a polypropylene 96-well assay plate containing 97 μL of RPMI using an Echo 555 acoustic liquid handler (Labcyte). LPS and IFNγ was prepared in RPMI to a 10× of final conc. (1000 ng/mL), final concentration is 100 ng/mL. […] 240 μL of blood was transferred to each of the wells of a v-bottom 96 well plate. 30 μL of compound was transferred from intermediate dilution plate, and incubated for 15 min. 30 μL from stimulants was then transferred to blood and mixed thoroughly. Plate was covered with breathable membrane and incubated at 37° C. for overnight (18 h). […] Plasma was diluted with RPMI in 1:1 ratio and proteins were precipitated out with two volume of Acetonitrile. The plates were centrifuged at 4000×G for 60 min. 20 μL of supernatant was carefully transferred to a 384 well plate contain 40 μL of 0.1% formic acid in water and analyzed by LC/MS/MS. LC/MS/MS analyses were performed using Thermo Fisher's LX4-TSQ Quantum Ultra system. This system consists of four Agilent binary high-performance liquid chromatography (HPLC) pumps and a TSQ Quantum Ultra triple quadrupole MS/MS instrument. For each sample, 5 μL were injected onto an Atlantis T3 column (2.1 mm×150 mm, 3 μm particle size) from Waters. The mobile phase gradient pumped at 0.8 mL/min was used to elute the analytes from the column at 25° C. The elution started at 0% B increasing linearly to 25% B at 6.5 min, holding at 25% for 1 min, re-equilibrating to 10 min. Mobile phase A consisted of 0.1% formic acid in water. Mobile phase B consisted of 0.1% of formic acid in acetonitrile. Data was acquired in positive mode using a HESI interface. The operational parameters for the TSQ Quantum Ultra instrument were a spray voltage of 4000 V, capillary temperature of 380° C., vaporizer temperature 400° C., shealth gas 60 arbitrary units, Aux gas 20 arbitrary units, tube lens 85 and collision gas 1.2 mTorr. SRM chromatograms of kynurenine (Q1: 209.2>Q3:94.0) and internal standard (Q1: 215.3>Q3:98.2) were collected for 90 sec. The peak area was integrated by Xcalibur Quan software. […] Compounds were titrated and IC50's were calculated by 4 parameter sigmoidal curve fitting formula.
With `Cc1cccc(N2CCC(C(F)Cn3nc(C(=O)N4C[C@@H](C)O[C@@H](C)C4)c4c3CCC4)CC2)c1C` (single isomer, unassigned) [Example 48], the concentration for half-maximal inhibition (IC50) is 964 nM.

With `Cc1c(F)ccc(C2CCC(CCn3nc(C(=O)N4CCN(C(=O)CO)CC4)c4c3CCC4)CC2)c1C` (single isomer, unassigned) [Example 49, 1-(4-(1-(2-(4-(4-fluoro-2,3-dimethylphenyl)cyclohexyl)ethyl)-1,4,5,6-tetrahydrocyclopenta[c]pyrazole-3-carbonyl)piperazin-1-yl)-2-hydroxyethan-1-one], the IC50 amounted to 177 nM. The value for `Cc1c(F)ccc(C2CCC(CCn3nc(C(=O)N4CCC(F)(CO)CC4)c4c3CCC4)CC2)c1C` (single isomer, unassigned) [Example 52, (1-(2-(4-(4-fluoro-2,3-dimethylphenyl)cyclohexyl)ethyl)-1,4,5,6-tetrahydrocyclopenta[c]pyrazol-3-yl)(4-fluoro-4-(hydroxymethyl)piperidin-1-yl)methanone] was 448 nM; that for `Cc1cccc(C2CCC(CCn3nc(C(=O)N4CCC(O)CC4)c4c3CCC4)CC2)c1C` (single isomer, unassigned) [Example 95, (1-(2-(4-(2,3-dimethylphenyl)cyclohexyl)ethyl)-1,4,5,6-tetrahydrocyclopenta[c]pyrazol-3-yl)(4-hydroxypiperidin-1-yl)methanone] was 166 nM; that for `Cc1cccc(C2CCC(CCn3nc(C(=O)N4CCC(O)CC4)c4c3CCC4)CC2)c1C` (single isomer, unassigned) [Example 96, (1-(2-(4-(2,3-dimethylphenyl)cyclohexyl)ethyl)-1,4,5,6-tetrahydrocyclopenta[c]pyrazol-3-yl)(4-hydroxypiperidin-1-yl)methanone] was 328 nM. Turning to `Cc1cccc(N2CCC(CCn3nc(C(=O)N4CCC(O)CC4)c4c3CCC4)CC2)c1C` [Example 1, (1-(2-(1-(2,3-dimethylphenyl)piperidin-4-yl)ethyl)-1,4,5,6-tetrahydrocyclopenta[c]pyrazol-3-yl)(4-hydroxypiperidin-1-yl)methanone], the IC50 came out at 341 nM.

For the molecule `Cc1c(F)ccc(N2CCC(CCn3nc(C(=O)N4CCC(F)(CO)CC4)c4c3CCC4)CC2)c1C` [Example 8, (1-(2-(1-(4-fluoro-2,3-dimethylphenyl)piperidin-4-yl)ethyl)-1,4,5,6-tetrahydrocyclopenta[c]pyrazol-3-yl)(4-fluoro-4-(hydroxymethyl)piperidin-1-yl)methanone], the IC50 came to 251 nM. With `Cc1c(F)ccc(N2CCC(CCn3nc(C(=O)N4CCN(C(=O)CO)CC4)c4c3CCC4)CC2)c1C` [Example 11, 1-[4-[1-[2-[1-(4-fluoro-2,3-dimethyl-phenyl)piperidin-1-ium-4-yl]ethyl]-5,6-dihydro-4H-cyclopenta[c]pyrazole-3-carbonyl]piperazin-1-yl]-2-hydroxy-ethanone], the IC50 was determined as 800 nM. The value for `CC(=O)NC1CCN(C(=O)c2nn(CCC3CCN(c4ccc(F)c(F)c4C)CC3)c3c2CCCC3)CC1` [Example 18, N-[1-[1-[2-[1-(3,4-difluoro-2-methyl-phenyl)-4-piperidyl]ethyl]-4,5,6,7-tetrahydroindazole-3-carbonyl]-4-piperidyl]acetamide] was 437 nM.

Turning to `CC(=O)NC1CCN(C(=O)c2nn(CCC3CCN(c4cccc(Cl)c4C)CC3)c3c2CCCC3)CC1` [Example 20, N-[1-[1-[2-[1-(3-chloro-2-methyl-phenyl)-4-piperidyl]ethyl]-4,5,6,7-tetrahydroindazole-3-carbonyl]-4-piperidyl]acetamide], the IC50 worked out at 286 nM. The same measure for `CC(=O)NC1CCN(C(=O)c2nn(CCC3CCN(c4nccc(C(F)(F)F)c4F)CC3)c3c2CCCC3)CC1` [Example 35, N-[1-[1-[2-[1-[3-fluoro-4-(trifluoromethyl)-2-pyridyl]-4-piperidyl]ethyl]-4,5,6,7-tetrahydroindazole-3-carbonyl]-4-piperidyl]acetamide]: 935 nM; for `Cc1c(Cl)cccc1O[C@H]1CC[C@@H](CCn2nc(C(=O)N3C[C@@H](C)O[C@@H](C)C3)c3c2CCC3)CC1` [Example 53, (1-(2-((1s,4S)-4-(3-chloro-2-methylphenoxy)cyclohexyl)ethyl)-1,4,5,6-tetrahydrocyclopenta[c]pyrazol-3-yl)((2R,6S)-2,6-dimethylmorpholino)methanone]: 822 nM; for `Cc1ccc(Cl)c(O[C@H]2CC[C@@H](CCn3nc(C(=O)N4CCN(C(=O)CO)CC4)c4c3CCC4)CC2)c1` [Example 57, 1-(4-(1-(2-((1s,4s)-4-(2-chloro-5-methylphenoxy)cyclohexyl)ethyl)-1,4,5,6-tetrahydrocyclopenta[c]pyrazole-3-carbonyl)piperazin-1-yl)-2-hydroxyethan-1-one]: 517 nM. As to `Cc1ccc(Cl)c(O[C@H]2CC[C@@H](CCn3nc(C(=O)N4CCC(F)(CO)CC4)c4c3CCC4)CC2)c1` [Example 58, (1-(2-((1s,4s)-4-(2-chloro-5-methylphenoxy)cyclohexyl)ethyl)-1,4,5,6-tetrahydrocyclopenta[c]pyrazol-3-yl)(4-fluoro-4-(hydroxymethyl)piperidin-1-yl)methanone], the IC50 is 538 nM. Take `CC(=O)NC1CCN(C(=O)c2nn(CC[C@H]3CC[C@@H](Oc4ccccc4C)CC3)c3c2CCC3)CC1` [Example 61, N-(1-(1-(2-((1s,4s)-4-(2-methylphenoxy)cyclohexyl)ethyl)-1,4,5,6-tetrahydrocyclopenta[c]pyrazole-3-carbonyl)piperidin-4-yl)acetamide]: the IC50 worked out at 30.6 nM. Regarding `CC(=O)NC1CCN(C(=O)c2nn(CC[C@H]3CC[C@@H](Oc4cnccc4C)CC3)c3c2CCC3)CC1` [Example 64, N-(1-(1-(2-((1s,4s)-4-((4-methylpyridin-3-yl)oxy)cyclohexyl)ethyl)-1,4,5,6-tetrahydrocyclopenta[c]pyrazole-3-carbonyl)piperidin-4-yl)acetamide], the IC50 was 215 nM. Turning to `CC(=O)NC1CCN(C(=O)c2nn(CC[C@H]3CC[C@@H](Oc4ccccc4C(F)(F)F)CC3)c3c2CCC3)CC1` [Example 65, N-(1-(1-(2-((1s,4s)-4-(2-(trifluoromethyl)phenoxy)cyclohexyl)ethyl)-1,4,5,6-tetrahydrocyclopenta[c]pyrazole-3-carbonyl)piperidin-4-yl)acetamide], the IC50 is 130 nM. As to `CC(=O)NC1CCN(C(=O)c2nn(CC[C@H]3CC[C@@H](Oc4nccc(C)c4C#N)CC3)c3c2CCC3)CC1` [Example 66, N-(1-(1-(2-((1s,4s)-4-((3-cyano-4-methylpyridin-2-yl)oxy)cyclohexyl)ethyl)-1,4,5,6-tetrahydrocyclopenta[c]pyrazole-3-carbonyl)piperidin-4-yl)acetamide], the IC50 is 153 nM. As for `CC(=O)NC1CCN(C(=O)c2nn(CC[C@H]3CC[C@@H](Oc4ccc(C)nc4C)CC3)c3c2CCC3)CC1` [Example 67, N-(1-(1-(2-((1s,4s)-4-((2,6-dimethylpyridin-3-yl)oxy)cyclohexyl)ethyl)-1,4,5,6-tetrahydrocyclopenta[c]pyrazole-3-carbonyl)piperidin-4-yl)acetamide], the IC50 amounted to 209 nM. As to `CC(=O)NC1CCN(C(=O)c2nn(CC[C@H]3CC[C@@H](Oc4cnc(C)nc4C)CC3)c3c2CCC3)CC1` [Example 68, N-(1-(1-(2-((1s,4s)-4-((2,4-dimethylpyrimidin-5-yl)oxy)cyclohexyl)ethyl)-1,4,5,6-tetrahydrocyclopenta[c]pyrazole-3-carbonyl)piperidin-4-yl)acetamide], the IC50 was found to be 517 nM. Take `CC(=O)NC1CCN(C(=O)c2nn(CC[C@H]3CC[C@@H](Oc4ccccc4Cl)CC3)c3c2CCC3)CC1` [Example 70, N-[1-[1-[2-[4-(2-chlorophenoxy)cyclohexyl]ethyl]-5,6-dihydro-4H-cyclopenta[c]pyrazole-3-carbonyl]-4-piperidyl]acetamide]: the IC50 amounted to 161 nM. Consider `CC(=O)NC1CCN(C(=O)c2nn(CC[C@H]3CC[C@@H](Oc4ncccc4C)CC3)cc2C2CC2)CC1` [Example 74, N-(1-(4-cyclopropyl-1-(2-((1s,4s)-4-((3-methylpyridin-2-yl)oxy)cyclohexyl)ethyl)-1H-pyrazole-3-carbonyl)piperidin-4-yl)acetamide], for which the IC50 worked out at 178 nM. The same measure for `CC(=O)NC1CCN(C(=O)c2nn(C[C@@H]3C[C@@H](Oc4ccc(Cl)cn4)CCO3)c3c2CC(F)(F)CC3)CC1` [Example 77, 6-{3-[4-(acetylamino)piperidine-1-carbonyl]-5,5-difluoro-4,5,6,7-tetrahydro-1H-indazol-1-yl}-1,5-anhydro-3-O-(5-chloropyridin-2-yl)-2,4,6-trideoxy-D-erythro-hexitol]: 136 nM.

For orientation: IC50 means the concentration at which inhibition is half-maximal.
